Patent US8865624B2, “Inhibitor for tobacco axillary bud growth and method for inhibiting tobacco axillary bud growth” (SDS Biotech K.K., priority 2010, dated 2014)

How the values were obtained:
[1] = tested on: Tobacco Michinoku 1 (burley cultivar) axillary buds; assay: Tobacco axillary bud growth inhibition test, burley cultivar; format: in vivo; details: Nicotiana tabacum, 672 h, 28 days after the spraying, read-out: Axillary bud growth inhibition ratio
Method: (§1) Tobacco seedlings of Tsukuba 1 (flue-cured cultivar) and Michinoku 1 (burley cultivar) were transplanted to 1/5000a Wagner pots filled with Kureha garden nursery soil. The plants were grown in a glasshouse, and the floral axis parts were removed at the time of single-flower bloom of tobacco (top pruning).
(§2) The formulations of the inhibitors for tobacco axillary bud growth obtained in Formulation Examples 1 to 10 above were each diluted with water to predetermined concentrations, and 20 ml of the water-diluted solutions of the respective inhibitors were separately sprayed using a contact-type axillary bud inhibitor spraying instrument equipped with a spot exhaust nozzle (Examples 1 to 11 and 12 to 22). In addition, butralin (trade name: Blue Ribbon) (Comparative Examples 1 and 3) and decyl alcohol (trade name: Contact) (Comparative Examples 2 and 4) were used for tests as comparative examples in the same manner as above. In the cases of both the flue-cured cultivar and burley cultivar, one plant was planted per pot, and the tests were carried out in duplicate.
(§3) For the respective cases, states of inhibition of axillary bud growth 28 days after the spraying were investigated together with untreated groups sprayed with no inhibitor, and axillary bud growth inhibition ratios were calculated by the following equation. Axillary bud growth inhibition ratio=(fresh weight of axillary buds per plant of untreated group−fresh weight of axillary buds per plant of treated group)÷(fresh weight of axillary buds per plant of untreated group)×100 [Math. 1]
(§4) The formulation of Formulation Example 1 (cafenstrole), Formulation Example 2 (thenylchlor) or Formulation Example 10 (propisochlor) above was diluted with water to predetermined concentrations and mixed with decyl alcohol (manufactured by Wako Pure Chemical Industries, Ltd.), 2-ethylhexanol (manufactured by Wako Pure Chemical Industries, Ltd.) or geraniol (manufactured by Wako Pure Chemical Industries, Ltd.) at predetermined concentrations, and the resultant was adjusted and used for tests (Examples 23 to 31 and 32 to 40). In addition, as comparative examples, the formulation of Formulation Example 1, […], or Formulation Example 10 diluted with water to predetermined concentrations (Comparative Examples 5 to 7 and 11 to 13) and decyl alcohol, 2-ethylhexanol or geraniol diluted with water to a predetermined concentration were used for tests (Comparative Examples 8 to 10 and 14 to 16).
(§5) The respective inhibitors were sprayed in the same manner as in Test Example 1, and states of inhibition of axillary bud growth 28 days after the spraying were investigated together with untreated groups sprayed with no inhibitor. Then, axillary bud growth inhibition ratios were calculated.
(§6) The formulation of Formulation Example 11 (cafenstrole), Formulation Example 12 (thenylchlor) or Formulation Example 13 (chlorthal-dimethyl) above was diluted with water to predetermined concentrations, and the resultant was mixed, adjusted and used for tests (Examples 41 to 58 and 59 to 76). In addition, as comparative examples, the formulation of Formulation Example 11, Formulation Example 12 or Formulation Example 13 diluted with water to predetermined concentrations (Comparative Examples 21 to 29 and 34 to 42), butralin (trade name: Blue Ribbon) (Comparative Examples 17, 18, 30, and 31) and decyl alcohol (trade name: Contact) (Comparative Examples 19, 20, 32, and 33) were used for tests in the same manner as above.

[2] = tested on: Tobacco Tsukuba 1 (flue-cured cultivar) axillary buds; assay: Tobacco axillary bud growth inhibition test, flue-cured cultivar; format: in vivo, Nicotiana tabacum; details: Nicotiana tabacum, 672 h, 28 days after the spraying, read-out: Axillary bud growth inhibition ratio
Method: as §1, §2, §3, §4, §5, §6

[3] = tested on: Tobacco Michinoku 1 (burley cultivar) leaves (first to fourth leaves from the top); assay: Harmful effect of inhibitor on tobacco leaves, burley cultivar; format: in vivo, Nicotiana tabacum; details: in vivo
Method: as §1, §2
(§7) Further, the presence or absence of the harmful effect of each inhibitor was evaluated in one of the following four categories depending on the degrees of growth inhibition, gangrene, change in color, deformation and the like of leaves (first to fourth leaves from the top).
(§8) Large: A severely harmful effect was observed.
(§9) Middle: A clearly harmful effect was observed.
(§10) Small: A slightly harmful effect was observed.
(§11) Absent: No harmful effect was observed.
as §6, §5

[4] = tested on: Tobacco Tsukuba 1 (flue-cured cultivar) leaves (first to fourth leaves from the top); assay: Harmful effect of inhibitor on tobacco leaves, flue-cured cultivar; format: in vivo, Nicotiana tabacum; details: in vivo
Method: as §1, §2, §7, §8, §9, §10, §11, §6, §5

`COc1ccsc1CN(C(=O)CCl)c1c(C)cccc1C` [Thenylchlor] gave a pest or weed control at 0.1 % ([1]; Table 2, burley cultivar, concentration of active ingredient 0.1%) of 95%, a pest or weed control at 0.05 % ([1]; Table 4, burley cultivar, concentration of active ingredient 0.05%) of 70% and a pest or weed control at 0.002 % ([1]; Table 6, burley cultivar, concentration of active ingredient 0.002%) of 11%. The pest or weed control at 0.005 % ([1]; Table 6, burley cultivar, concentration of active ingredient 0.005%) was 22%, the pest or weed control at 0.01 % ([1]; Table 6, burley cultivar, concentration of active ingredient 0.01%) was 28% and the pest or weed control at 0.1 % ([2]; Table 1, flue-cured cultivar, concentration of active ingredient 0.1%) was 96%. For the same compound, the pest or weed control at 0.05 % ([2]; Table 3, flue-cured cultivar, concentration of active ingredient 0.05%) was 74%, the pest or weed control at 0.002 % ([2]; Table 5, flue-cured cultivar, concentration of active ingredient 0.002%) was 12% and the pest or weed control at 0.005 % ([2]; Table 5, flue-cured cultivar, concentration of active ingredient 0.005%) was 14%. The pest or weed control at 0.01 % ([2]; Table 5, flue-cured cultivar, concentration of active ingredient 0.01%) was 22%, the “Harmful effect of inhibitor” value [3] was “Absent” and the “Harmful effect of inhibitor” value [4] was “Absent”.
